Key:
primary human T-cells = test: Cytokine secretion on protein level in activated primary human T-cells (13-plex FACS / Luminex, supernatant); type: cell-based; details: for IL-1 cytokine concentration / IL-2 cytokine concentration / IL-4 cytokine concentration / IL-5 cytokine concentration / IL-6 cytokine concentration / IL-9 cytokine concentration / IL-10 cytokine concentration / IL-12p70 cytokine concentration / IL-13 cytokine concentration / IL-17 cytokine concentration / IL-22 cytokine concentration / TNF-α cytokine concentration / INF-α cytokine concentration: substance 10^−9M
Method in brief: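 PMA/Ionomycin- or IFN-γ-activated cells (48 h) treated with tripeptides; supernatant 13-plex FACS at 48 h and 72 h post-stimulation. Luminex run: PMA/Ionomycin plus compound at 10^−7, 10^−9, 10^−11 M; IFN-γ, IL-17, IL-10 for T cells, IFN-γ for HaCaT.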

primary murine T-cells = test: Cytokine secretion on protein level in activated primary murine T-cells (13-plex FACS / Luminex, supernatant); type: cell-based, C57BL/6 mice; details: for IL-1 cytokine concentration / IL-2 cytokine concentration / IL-4 cytokine concentration / IL-5 cytokine concentration / IL-6 cytokine concentration / IL-10 cytokine concentration / IL-13 cytokine concentration / IL-17 cytokine concentration / IL-21 cytokine concentration / IL-22 cytokine concentration / IL-27 cytokine concentration / TNF-α cytokine concentration / IFN-γ cytokine concentration: substance 10^−9M
Method in brief: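 T-cells from secondary lymphatic organs of naïve C57BL/6 mice, stimulated with PMA/Ionomycin or IFN-γ; supernatant cytokines measured by 13-plex FACS 48 h and 72 h after stimulation. In another run, PMA/Ionomycin-stimulated cells received compounds at 10^−7, 10^−9 and 10^−11 M, with IFN-γ, IL-17 and IL-10 measured by Luminex.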

[1] = system: human keratinocyte cell line (HaCaT); test: Cytokine secretion on protein level in activated human keratinocyte cell line HaCaT (13-plex FACS / Luminex, supernatant); type: cell-based; details: for IL-1 cytokine concentration / IL-2 cytokine concentration / IL-4 cytokine concentration / IL-5 cytokine concentration / IL-6 cytokine concentration / IL-9 cytokine concentration / IL-10 cytokine concentration / IL-12p70 cytokine concentration / IL-13 cytokine concentration / IL-17 cytokine concentration / IL-22 cytokine concentration / TNF-α cytokine concentration / IFN-γ cytokine concentration: substance 10^−9M
Method in brief: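 Cytokine protein in supernatant is read by multiplex FACS or Luminex. Tripeptide-treated HaCaT cells or blood-derived human T-cells are stimulated beforehand with PMA/Ionomycin or IFN-γ. The most relevant analytes are IL-1, IL-2, IL-6, IL-12p70, IL-17, IFN-γ and TNF-α, sampled 48 h and 72 h after stimulation.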

[2] = primary human T-cells stimulated with IFN-γ
[3] = primary human T-cells stimulated with PBS
[4] = primary human T-cells stimulated with PMA/Ionomycin
[5] = primary murine T-cells stimulated with IFN-γ
[6] = primary murine T-cells stimulated with PBS
[7] = primary murine T-cells stimulated with PMA/Ionomycin
[8] = HaCaT stimulated with PMA/Ionomycin

Q: Which results are given for H-(L)-Nle-(L)-Pro-Aib-OH [Example 12]?
A: secretion / expression of pro-inflammatory cytokines (supernatant) (primary human T-cells; activated primary human T-cells): able to reduce; IL-1 cytokine concentration (primary human T-cells; [2]): 44.77 pg/mL; IL-2 cytokine concentration (primary human T-cells; [2]): 0 pg/mL; IL-4 cytokine concentration (primary human T-cells; [2]): 0 pg/mL; IL-5 cytokine concentration (primary human T-cells; [2]): 0 pg/mL; IL-6 cytokine concentration (primary human T-cells; [2]): 60.44 pg/mL; IL-9 cytokine concentration (primary human T-cells; [2]): 7.67 pg/mL; IL-10 cytokine concentration (primary human T-cells; [2]): 84.25 pg/mL; IL-12p70 cytokine concentration (primary human T-cells; [2]): 0 pg/mL; IL-13 cytokine concentration (primary human T-cells; [2]): 0 pg/mL; IL-17 cytokine concentration (primary human T-cells; [2]): 0 pg/mL; IL-22 cytokine concentration (primary human T-cells; [2]): 0 pg/mL; TNF-α cytokine concentration (primary human T-cells; [2]): 41.38 pg/mL; IL-1 cytokine concentration (primary human T-cells; [3]): 0 pg/mL; IL-2 cytokine concentration (primary human T-cells; [3]): 0 pg/mL; IL-4 cytokine concentration (primary human T-cells; [3]): 0 pg/mL; IL-5 cytokine concentration (primary human T-cells; [3]): 0 pg/mL; IL-6 cytokine concentration (primary human T-cells; [3]): 91.86 pg/mL; IL-9 cytokine concentration (primary human T-cells; [3]): 0 pg/mL; IL-10 cytokine concentration (primary human T-cells; [3]): 189.65 pg/mL; IL-12p70 cytokine concentration (primary human T-cells; [3]): 0 pg/mL; IL-13 cytokine concentration (primary human T-cells; [3]): 0 pg/mL; IL-17 cytokine concentration (primary human T-cells; [3]): 104.68 pg/mL; IL-22 cytokine concentration (primary human T-cells; [3]): 0 pg/mL; INF-α cytokine concentration (primary human T-cells; [3]): 0 pg/mL; TNF-α cytokine concentration (primary human T-cells; [3]): 41.38 pg/mL; IL-1 cytokine concentration (primary human T-cells; [4]): 548.85 pg/mL; IL-2 cytokine concentration (primary human T-cells; [4]): 2751.28 pg/mL; IL-4 cytokine concentration (primary human T-cells; [4]): 73.38 pg/mL; IL-5 cytokine concentration (primary human T-cells; [4]): 328.24 pg/mL; IL-6 cytokine concentration (primary human T-cells; [4]): 1046.79 pg/mL; IL-9 cytokine concentration (primary human T-cells; [4]): 286.89 pg/mL; IL-10 cytokine concentration (primary human T-cells; [4]): 992.02 pg/mL; IL-12p70 cytokine concentration (primary human T-cells; [4]): 0 pg/mL; IL-13 cytokine concentration (primary human T-cells; [4]): 1026.08 pg/mL; IL-17 cytokine concentration (primary human T-cells; [4]): 1355.07 pg/mL; IL-22 cytokine concentration (primary human T-cells; [4]): 0 pg/mL; INF-α cytokine concentration (primary human T-cells; [4]): 9454.26 pg/mL; TNF-α cytokine concentration (primary human T-cells; [4]): 2985.72 pg/mL; activity (reduction of pro-inflammatory cytokines) relative to K(D)PT (primary human T-cells; second experiment, all three cellular models): comparable; secretion / expression of pro-inflammatory cytokines (supernatant) (primary murine T-cells; activated primary murine T-cells): able to reduce; IL-1 cytokine concentration (primary murine T-cells; [5]): 86.08 pg/mL; IL-2 cytokine concentration (primary murine T-cells; [5]): 88.9 pg/mL; IL-4 cytokine concentration (primary murine T-cells; [5]): 34.22 pg/mL; IL-5 cytokine concentration (primary murine T-cells; [5]): 221.57 pg/mL; IL-6 cytokine concentration (primary murine T-cells; [5]): 110.7 pg/mL; IL-10 cytokine concentration (primary murine T-cells; [5]): 1130.01 pg/mL; IL-13 cytokine concentration (primary murine T-cells; [5]): 0 pg/mL; IL-17 cytokine concentration (primary murine T-cells; [5]): 72.21 pg/mL; IL-21 cytokine concentration (primary murine T-cells; [5]): 40.2 pg/mL; IL-22 cytokine concentration (primary murine T-cells; [5]): 42.98 pg/mL; IL-27 cytokine concentration (primary murine T-cells; [5]): 12.5 pg/mL; TNF-α cytokine concentration (primary murine T-cells; [5]): 31.88 pg/mL; IFN-γ cytokine concentration (primary murine T-cells; [6]): 0 pg/mL; IL-1 cytokine concentration (primary murine T-cells; [6]): 61.52 pg/mL; IL-2 cytokine concentration (primary murine T-cells; [6]): 189.72 pg/mL; IL-4 cytokine concentration (primary murine T-cells; [6]): 32.24 pg/mL; IL-5 cytokine concentration (primary murine T-cells; [6]): 331.87 pg/mL; IL-6 cytokine concentration (primary murine T-cells; [6]): 223.98 pg/mL; IL-10 cytokine concentration (primary murine T-cells; [6]): 872.36 pg/mL; IL-13 cytokine concentration (primary murine T-cells; [6]): 0 pg/mL; IL-17 cytokine concentration (primary murine T-cells; [6]): 0 pg/mL; IL-21 cytokine concentration (primary murine T-cells; [6]): 69.64 pg/mL; IL-22 cytokine concentration (primary murine T-cells; [6]): 76.71 pg/mL; IL-27 cytokine concentration (primary murine T-cells; [6]): 71.85 pg/mL; TNF-α cytokine concentration (primary murine T-cells; [6]): 74.9 pg/mL; IFN-γ cytokine concentration (primary murine T-cells; [7]): 1298.02 pg/mL; IL-1 cytokine concentration (primary murine T-cells; [7]): 167.79 pg/mL; IL-2 cytokine concentration (primary murine T-cells; [7]): 98.57 pg/mL; IL-4 cytokine concentration (primary murine T-cells; [7]): 90.14 pg/mL; IL-5 cytokine concentration (primary murine T-cells; [7]): 242.24 pg/mL; IL-6 cytokine concentration (primary murine T-cells; [7]): 116.16 pg/mL; IL-10 cytokine concentration (primary murine T-cells; [7]): 1255.25 pg/mL; IL-13 cytokine concentration (primary murine T-cells; [7]): 0 pg/mL; IL-17 cytokine concentration (primary murine T-cells; [7]): 79.1 pg/mL; IL-21 cytokine concentration (primary murine T-cells; [7]): 0 pg/mL; IL-22 cytokine concentration (primary murine T-cells; [7]): 57.07 pg/mL; IL-27 cytokine concentration (primary murine T-cells; [7]): 80.09 pg/mL; TNF-α cytokine concentration (primary murine T-cells; [7]): 50.73 pg/mL; IL-1 cytokine concentration ([1]; HaCaT stimulated with IFN-γ): 9.31 pg/mL; IL-2 cytokine concentration ([1]; HaCaT stimulated with IFN-γ): 0 pg/mL; IL-4 cytokine concentration ([1]; HaCaT stimulated with IFN-γ): 69.91 pg/mL; IL-5 cytokine concentration ([1]; HaCaT stimulated with IFN-γ): 0 pg/mL; IL-6 cytokine concentration ([1]; HaCaT stimulated with IFN-γ): 297.09 pg/mL; IL-9 cytokine concentration ([1]; HaCaT stimulated with IFN-γ): 0 pg/mL; IL-10 cytokine concentration ([1]; HaCaT stimulated with IFN-γ): 0 pg/mL; IL-12p70 cytokine concentration ([1]; HaCaT stimulated with IFN-γ): 0 pg/mL; IL-13 cytokine concentration ([1]; HaCaT stimulated with IFN-γ): 195.68 pg/mL; IL-17 cytokine concentration ([1]; HaCaT stimulated with IFN-γ): 56.13 pg/mL; IL-22 cytokine concentration ([1]; HaCaT stimulated with IFN-γ): 0 pg/mL; TNF-α cytokine concentration ([1]; HaCaT stimulated with IFN-γ): 0 pg/mL; IFN-γ cytokine concentration ([1]; HaCaT stimulated with PBS): 0 pg/mL; IL-1 cytokine concentration ([1]; HaCaT stimulated with PBS): 0 pg/mL; IL-2 cytokine concentration ([1]; HaCaT stimulated with PBS): 0 pg/mL; IL-4 cytokine concentration ([1]; HaCaT stimulated with PBS): 0 pg/mL; IL-5 cytokine concentration ([1]; HaCaT stimulated with PBS): 0 pg/mL; IL-6 cytokine concentration ([1]; HaCaT stimulated with PBS): 56.87 pg/mL; IL-9 cytokine concentration ([1]; HaCaT stimulated with PBS): 4.96 pg/mL; IL-10 cytokine concentration ([1]; HaCaT stimulated with PBS): 69.45 pg/mL; IL-12p70 cytokine concentration ([1]; HaCaT stimulated with PBS): 0 pg/mL; IL-13 cytokine concentration ([1]; HaCaT stimulated with PBS): 193.75 pg/mL; IL-17 cytokine concentration ([1]; HaCaT stimulated with PBS): 0 pg/mL; IL-22 cytokine concentration ([1]; HaCaT stimulated with PBS): 0 pg/mL; TNF-α cytokine concentration ([1]; HaCaT stimulated with PBS): 5.55 pg/mL; IFN-γ cytokine concentration [1, 8]: 22.77 pg/mL; IL-1 cytokine concentration [1, 8]: 0 pg/mL; IL-2 cytokine concentration [1, 8]: 0 pg/mL; IL-4 cytokine concentration [1, 8]: 0 pg/mL; IL-5 cytokine concentration [1, 8]: 0 pg/mL; IL-6 cytokine concentration [1, 8]: 158.4 pg/mL; IL-9 cytokine concentration [1, 8]: 0 pg/mL; IL-10 cytokine concentration [1, 8]: 86.04 pg/mL; IL-12p70 cytokine concentration [1, 8]: 0 pg/mL; IL-13 cytokine concentration [1, 8]: 0 pg/mL; IL-17 cytokine concentration [1, 8]: 25.98 pg/mL; IL-22 cytokine concentration [1, 8]: 0 pg/mL; TNF-α cytokine concentration [1, 8]: 0 pg/mL; secretion / expression of pro-inflammatory cytokines (supernatant) ([1]; activated human keratinocytes): able to reduce
